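Interpolation was linear, between the two tested concentrations surrounding the appropriate level; five concentrations were tested over 48 hours in 96-well plates. Here, GI50 denotes the concentration required for 50% inhibition of growth.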 Activity calls are given as the source filed them. Cut-off read from the data, not from the text of the source: active = GI50 up to about 1.1 µM and inactive = higher.
Key:
Test in all cases: NCI tumour cell line growth inhibition, 48 h
COLO 205 = system: COLO 205
OVCAR-4 = system: OVCAR-4
OVCAR-5 = system: OVCAR-5
NCI-H226 = system: NCI-H226
SK-OV-3 = system: SK-OV-3
HCT-116 = system: HCT-116
MDA-MB-435 = system: MDA-MB-435
NCI-H23 = system: NCI-H23
SN12C = system: SN12C
NCI/ADR-RES = system: NCI/ADR-RES
HOP-62 = system: HOP-62
MDA-MB-231 = system: MDA-MB-231
EKVX = system: EKVX
MCF7 = system: MCF7
NCI-H460 = system: NCI-H460
A498 = system: A498
HOP-92 = system: HOP-92
T47D = system: T47D
RPMI-8226 = system: RPMI-8226

| SMILES | GI50 (COLO 205) | GI50 (OVCAR-4) | GI50 (OVCAR-5) | GI50 (NCI-H226) | GI50 (SK-OV-3) | GI50 (HCT-116) | GI50 (MDA-MB-435) | GI50 (NCI-H23) | GI50 (SN12C) | GI50 (NCI/ADR-RES) | GI50 (HOP-62) | GI50 (MDA-MB-231) | GI50 (EKVX) | GI50 (MCF7) | GI50 (NCI-H460) | GI50 (A498) | GI50 (HOP-92) | GI50 (T47D) | GI50 (RPMI-8226) |
| --- | --- | --- | --- | --- | --- | --- | --- | --- | --- | --- | --- | --- | --- | --- | --- | --- | --- | --- | --- |
| COc1ccc(/C=C/C(=O)CCN2CCN(CCC(=O)/C=C/c3ccc(OC)cc3)CC2)cc1 | 2.01 µM (inactive) | 22.8 µM (inactive) | 17.9 µM (inactive) | 22.3 µM (inactive) | 11.8 µM (inactive) | 3.29 µM (inactive) | 9.35 µM (inactive) | 15.6 µM (inactive) | 12.6 µM (inactive) | 36.4 µM (inactive) | 20.6 µM (inactive) | 12.6 µM (inactive) | 14.5 µM (inactive) | 3.56 µM (inactive) | 11.1 µM (inactive) | < 0.01 µM (active) | 18.6 µM (inactive) |  |  |
| CN(C)C(=S)N1C(=S)N(c2ccccc2)C(=N/c2ccccc2)/C1=N\c1ccccc1 | > 100 µM (inactive) | > 100 µM (inactive) | > 100 µM (inactive) | > 100 µM (inactive) | > 100 µM (inactive) | > 100 µM (inactive) | > 100 µM (inactive) | > 100 µM (inactive) | > 100 µM (inactive) | > 100 µM (inactive) | > 100 µM (inactive) | > 100 µM (inactive) | > 100 µM (inactive) |  | > 100 µM (inactive) | > 100 µM (inactive) | > 100 µM (inactive) | > 100 µM (inactive) | > 100 µM (inactive) |
| COC(=O)C(CNC(=O)/C=C/c1ccc(OC(C)=O)c(OC(C)=O)c1)NC(=O)/C=C/c1ccc(OC(C)=O)c(OC(C)=O)c1 (configuration not stated) | > 100 µM (inactive) | > 100 µM (inactive) | > 100 µM (inactive) | > 100 µM (inactive) | 57.5 µM (inactive) | > 100 µM (inactive) | > 100 µM (inactive) | > 100 µM (inactive) | > 100 µM (inactive) |  | > 100 µM (inactive) | > 100 µM (inactive) | > 100 µM (inactive) | > 100 µM (inactive) | > 100 µM (inactive) | > 100 µM (inactive) | > 100 µM (inactive) | 77.3 µM (inactive) | > 100 µM (inactive) |
| COC(=O)c1c(O)ccc2c1c1c(n2Cc2ccccn2)C(=O)c2ccccc2C1 | 13.5 µM (inactive) | 19.4 µM (inactive) | 49.8 µM (inactive) | > 100 µM (inactive) | 96.2 µM (inactive) | 50 µM (inactive) | 86.5 µM (inactive) | > 100 µM (inactive) | > 100 µM (inactive) | 44.4 µM (inactive) | > 100 µM (inactive) | > 100 µM (inactive) |  | 22.9 µM (inactive) | 50.2 µM (inactive) | > 100 µM (inactive) |  |  | 13 µM (inactive) |
| CC1=CC(=O)/C(=C(/C)NCCN(CCN/C(C)=C2\C(=O)C=C(C)OC2=O)CCN/C(C)=C2\C(=O)C=C(C)OC2=O)C(=O)O1 | > 100 µM (inactive) | > 100 µM (inactive) | > 100 µM (inactive) |  | > 100 µM (inactive) | > 100 µM (inactive) | > 100 µM (inactive) |  | > 100 µM (inactive) | > 100 µM (inactive) | > 100 µM (inactive) | > 100 µM (inactive) | > 100 µM (inactive) | > 100 µM (inactive) | > 100 µM (inactive) |  |  | > 100 µM (inactive) | > 100 µM (inactive) |
| COc1cc(C2C3=C(CCCC3=O)N(c3ccc(C)cc3)C3=C2C(=O)CCC3)c([N+](=O)[O-])cc1OC |  | 45.4 µM (inactive) | > 100 µM (inactive) | 76.9 µM (inactive) | > 100 µM (inactive) |  |  | > 100 µM (inactive) | > 100 µM (inactive) | > 100 µM (inactive) |  |  | > 100 µM (inactive) | 39.4 µM (inactive) | > 100 µM (inactive) | > 100 µM (inactive) | 52 µM (inactive) |  | 57.3 µM (inactive) |
